Measurements taken from EP4583874B1, “MULTITARGET NUCLEAR RECEPTOR LIGANDS BASED ON 2-(4-(QUINOLIN-2-YLOXY)PHENOXY)PROPANOIC ACID AND 2-(4-(QUINOXALIN-2-YLOXY)PHENOXY)PROPANOIC ACID FOR THE TREATMENT OF METABOLIC AND LIVER DISEASES” (CHARLES UNIVERSITY, FACULTY OF PHARMACY IN HRADEC KRALOVE, priority 2022, dated 2024).

Tests used:
human PPARα = target: T1, human PPARα (Homo sapiens, UniProt Q07869); experiment: PPARα responsive luciferase reporter gene assay (pGAL4-PPARα / pGL5-UAS 9x) in HepG2 cells; assay type: cell-based; settings: relative activation to fenofibrate 10 µM (100%), HepG2, 24 h, negative value indicates inverse agonism
T1 construct: DNA constructs encoding human LBD domains of human PPARα, PPARγ, of LXRα (pGAL4-PPARα, pGAL4-PPARγ, pGAL4-LXRα); expressed in transfected cells; host or cells: HepG2
T1 sequence (Q07869 239-466 limits assumed): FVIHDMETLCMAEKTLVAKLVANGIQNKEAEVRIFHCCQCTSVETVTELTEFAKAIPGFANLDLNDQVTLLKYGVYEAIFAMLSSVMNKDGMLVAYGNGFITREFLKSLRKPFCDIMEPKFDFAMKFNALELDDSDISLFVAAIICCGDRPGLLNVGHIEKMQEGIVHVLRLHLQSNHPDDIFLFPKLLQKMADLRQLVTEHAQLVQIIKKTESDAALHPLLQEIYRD
Description: Bezafibrate, GW7647 and WY14643 are known PPARα ligands. […] GW3965 is known high-affinity LXRα ligand. […]
(§1) In HepG2 cells, luciferase gene reporter assays have been performed with the transiently transfected reporter gene luciferase construct with the UAS yeast binding site interacting with GAL4 protein (pGL5-UAS 9x, Promega). DNA constructs encoding human LBD domains of human PPARα, PPARγ, of LXRα (pGAL4-PPARα, pGAL4-PPARγ, pGAL4-LXRα) have been cotransfected with the reporter construct. For FXR, FXRE-luc construct with FXR response elements upstream of Firefly luciferase has been used together with an expression construct for human FXR for HepG2 cells transfection. HepG2 cells were then treated with compounds of the invention for 24 h.

human FXR = target: T2, human FXR (Homo sapiens, UniProt Q96RI1); experiment: FXR responsive luciferase reporter gene assay (FXRE-luc + human FXR expression construct) in HepG2 cells; assay type: cell-based; settings: HepG2, 24 h
T2 construct: expressed in transfected cells; host or cells: HepG2
T2 sequence (Q96RI1 1-486): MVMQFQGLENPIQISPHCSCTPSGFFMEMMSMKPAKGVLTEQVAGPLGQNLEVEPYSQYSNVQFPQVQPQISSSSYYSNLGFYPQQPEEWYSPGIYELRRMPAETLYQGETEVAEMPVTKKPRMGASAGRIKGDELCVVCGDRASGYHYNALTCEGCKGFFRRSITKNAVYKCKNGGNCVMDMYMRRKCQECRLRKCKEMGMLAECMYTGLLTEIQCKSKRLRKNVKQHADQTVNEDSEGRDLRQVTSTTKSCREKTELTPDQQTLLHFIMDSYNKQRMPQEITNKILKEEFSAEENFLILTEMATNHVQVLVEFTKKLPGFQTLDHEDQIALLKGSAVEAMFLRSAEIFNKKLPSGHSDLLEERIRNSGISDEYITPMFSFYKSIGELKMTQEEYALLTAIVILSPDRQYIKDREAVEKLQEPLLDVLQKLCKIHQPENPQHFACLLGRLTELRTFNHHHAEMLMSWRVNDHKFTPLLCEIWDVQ
Description: as §1

TGR5 = target: T3, TGR5 (Homo sapiens, UniProt Q8TDU6); experiment: TGR5 luciferase reporter assay; assay type: cell-based; settings: relative activation to LCA 10 µM (100%), negative value indicates inverse agonism
T3 sequence (Q8TDU6 1-330): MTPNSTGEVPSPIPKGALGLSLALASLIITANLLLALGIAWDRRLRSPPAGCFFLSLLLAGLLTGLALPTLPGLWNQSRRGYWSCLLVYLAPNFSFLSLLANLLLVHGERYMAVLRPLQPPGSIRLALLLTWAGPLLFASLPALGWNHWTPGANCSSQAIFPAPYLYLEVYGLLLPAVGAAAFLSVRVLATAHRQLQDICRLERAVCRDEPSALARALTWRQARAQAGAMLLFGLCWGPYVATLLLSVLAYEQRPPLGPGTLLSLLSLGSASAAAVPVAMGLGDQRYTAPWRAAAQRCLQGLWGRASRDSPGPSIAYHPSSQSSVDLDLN

C57BL/6J mice = experiment: Pilot study in mice, liver mRNA expression by RT-qPCR; assay type: in vivo; settings: 3x 30 mg/kg p.o. gavage, liver 24 h after last application, vs vehicle
Protocol: Compounds 35 and 37 have been applied three times after 24 h (3x 30 mg/kg) via p.o. gavage to wild-type C57BL/6J mice. After 24 h from the last application, mice were sacrificed, and live samples collected on dry ice for total RNA isolation. RT-qPCR experiments have been performed with TaqMan probes and expression has been quantified using a reference gene (beta-actin and Gapdh) and delta-delta method. Data represents fold up or downregulation in mRNA expression for tested genes related to the expression in vehicle-treated control animals. * - statistically significant (p<0.05) up- or down- regulation in animals treated with tested compounds (n=4).
In the pilot study, compounds of the invention 37 and 35 were applied by per os probe (gavage) to male mice of age 15 weeks (n=4 per group) three times (3 x 30 mg/kg b.w.) in 1%PEG300/methylcellulose solution (compounds of EXAMPLE 37or 35). Livers were sampled 24 hours after application into liquid nitrogen for total RNA insolation and for qRT-PCR analysis (Quantstudio 7 HT Fast Real-Time PCR System).
Expressions of NR target genes mRNAs in livers of mice or in 3D cultured (spheroids) primary human hepatocytes have been performed using TaqMan probes-based RT-qPCR after isolation of total RNA by Trizol® (ThermoFischer Scientific) reagent and reverse transcription synthesis of cDNA in Quant Studio cycler. Real-time qPCR TaqMan probes have been purchased prom ThermoFisher scientific (Cat. No. 4351372 and 433118). Delta-delta method and Gapdh or TATA-box binding protein (TBP) housekeeping genes were used for relative quantification. Data are expressed as fold up-/down-regulation compared to vehicle-treated samples/mice.

Emax at 10 µM (human PPARα): 8%
Emax at 10 µM (human FXR): 77%
Emax at 10 µM (TGR5): 10%
Cyp7a1 expression in the mouse liver (C57BL/6J mice): down-regulates
SMILES: C[C@@H](Oc1ccc(Oc2ccc3c(Cl)cccc3n2)cc1)C(=O)O [compound 37, (R)-2-(4-((5-Chloroquinolin-2-yl)oxy)phenoxy)propanoic acid]
Fasn gene expression in the mouse liver (C57BL/6J mice): down-regulate
Pck1 gene expression in the mouse liver (C57BL/6J mice): down-regulate
cholesterol efflux transporters Abcg5/8 expression in the mouse liver (C57BL/6J mice): down-regulates
key protein involved in fatty acid (beta) oxidation, mRNA expression in the mouse liver (C57BL/6J mice): up-regulate
